The target of experiment [1] is T1, Alpha-synuclein (Homo sapiens, UniProt P37840). Nature of the experiment: Inhibition of alpha-synuclein aggregation (unknown origin) incubated for 8 days by thioflavin S based fluorescence assay.
The target of experiment [2] is T1, Alpha-synuclein. In words: Inhibition of human alpha-synuclein filament formation expressed in Escherichia coli BL21(DE3) cells incubated for 72 hrs by thioflavin S based fluorescence assay.
For experiment [3], the target named is T1, Alpha-synuclein. In words: Inhibition of human alpha-synuclein aggregation expressed in Escherichia coli BL21(DE3) cells assessed as percent of un-inhibition measured at 16 hrs by thioflavin T based fluorescence assay relative to control. More on the design: concentration or dose not given beside the values.
For experiment [4], the target named is T1, Alpha-synuclein. Nature of the experiment: Inhibition of alpha-synuclein fibril formation (unknown origin) incubated for 24 hrs to 7 days by thioflavin S based fluorescence assay.
Experiment [5] has as its target T1, Alpha-synuclein. Nature of the experiment: Inhibition of alpha-synuclein aggregation (unknown origin) expressed in Escherichia coli BL21(DE3) cells assessed as HFIP-induced protein aggregation measured after 16 to 18 hrs by thioflavin T based fluorescence assay relative to control. Details: scale not given: the % may be the effect or the level left. As to conditions: time hrs 16-18.

For experiment [6], the target named is T1, Alpha-synuclein. In words: Inhibition of alpha-synuclein aggregation (unknown origin) expressed in Escherichia coli BL21(DE3) cells. As to conditions: concentration not given here.

Regarding `C[C@]12CC[C@@H]3c4ccc(O)cc4CC[C@H]3[C@@H]1CC[C@@H]2O` [ESTRADIOL], the IC50 at Alpha-synuclein [1] amounted to 60 µM.

Take `Cc1cc(O)c2c(=O)c3c(O)cc(O)c4c5c(O)cc(O)c6c(=O)c7c(O)cc(C)c8c1c2c(c34)c(c78)c65` [HYPERICIN]: the IC50 on Alpha-synuclein [2] was 7.5 µM.

On Alpha-synuclein [2], `O=C(O[C@@H]1Cc2c(O)cc(O)cc2O[C@H]1c1cc(O)c(O)c(O)c1)c1cc(O)c(O)c(O)c1` [GALLOCATECHIN GALLATE] displayed an IC50 of 3.6 µM.

H-KTWNAAAGKWTE-OH: on Alpha-synuclein [3], the Remaining aggregation (% of control) was 81%.

Turning to H-KKLTVWI-OH, on Alpha-synuclein [3], the Remaining aggregation (% of control) worked out at 61%.

As for `Oc1cc(O)c2c(c1)O[C@H](c1ccc(O)c(O)c1)[C@H](O)[C@H]2c1c(O)cc(O)c2c1O[C@H](c1ccc(O)c(O)c1)[C@@H](O)C2` [PROCYANIDIN B1], at Alpha-synuclein [2], it took 7.3 µM to reach half-maximal inhibition (IC50).

Compound `CN(C)[C@@H]1C(O)=C(C(N)=O)C(=O)[C@@]2(O)C(O)=C3C(=O)c4c(O)cccc4[C@@](C)(O)[C@H]3C[C@@H]12` [TETRACYCLINE] displayed an IC50 against Alpha-synuclein [4] of 6.06 µM.

As for `CO[C@H]1/C=C/O[C@@]2(C)Oc3c(C)c(O)c4c(O)c(c(/C=N/N5CCN(C)CC5)c(O)c4c3C2=O)NC(=O)/C(C)=C\C=C\[C@H](C)[C@H](O)[C@@H](C)[C@@H](O)[C@@H](C)[C@H](OC(C)=O)[C@@H]1C` [RIFAMPIN], the IC50 against Alpha-synuclein [2] amounted to 46.2 µM; against Alpha-synuclein [4], 7.1 µM.

Regarding `O=c1cc(-c2ccc(O)c(O)c2)oc2cc(O)cc(O)c12` [LUTEOLIN], on Alpha-synuclein [2], the IC50 came to 28 µM.

In the case of `Oc1cc(O)c2cc(O)c(-c3cc(O)c(O)c(O)c3)[o+]c2c1` [DELPHINIDIN CHLORIDE], the midpoint of inhibition against Alpha-synuclein [2], the IC50, lay at 6.5 µM.

`CC(Cc1ccc(O)c(O)c1)C(C)Cc1ccc(O)c(O)c1` (stereo not drawn) [NORDIHYDROGUAIARETIC ACID]: the IC50 against Alpha-synuclein [1] was found to be 0.21 µM; on Alpha-synuclein [4], 0.22 µM.

For the compound `C[C@]12CC[C@@H]3c4ccc(O)cc4CC[C@H]3[C@@H]1C[C@@H](O)[C@@H]2O` [ESTRIOL], the IC50 against Alpha-synuclein [1] amounted to 20.1 µM.

The compound `O=c1c(O)cccc2cc(O)c(O)c(O)c12` [PURPUROGALLIN] had an IC50 at Alpha-synuclein [2] of 12.9 µM.

As to `O=c1c(O)c(-c2cc(O)c(O)c(O)c2)oc2cc(O)cc(O)c12` [MYRICETIN], the figures for the IC50 against Alpha-synuclein [2] and against Alpha-synuclein [4] were 13.3 µM and 0.22 µM, respectively.

At Alpha-synuclein [2], `Oc1cc(O)c2c(c1)O[C@H](c1ccc(O)c(O)c1)[C@H](O)[C@H]2c1c(O)cc(O)c2c1O[C@H](c1ccc(O)c(O)c1)[C@H](O)C2` [PROCYANIDIN B2] returned an IC50 of 4.3 µM.

The compound `COc1cc(/C=C/C(=O)O)ccc1O` [FERULATE] gave an IC50 at Alpha-synuclein [4] of 0.75 µM.

As for `C[C@]12CC[C@@H]3c4ccc(O)cc4CC[C@H]3[C@@H]1CCC2=O` [ESTRONE], half-maximal inhibition against Alpha-synuclein [1] (IC50) required 93.1 µM.

`Oc1cc(O)c2cc(O)c(-c3ccc(O)c(O)c3)[o+]c2c1` [CYANIDIN CHLORIDE] returned an IC50 at Alpha-synuclein [2] of 10.3 µM.

With `CC[C@H](C)[C@H](NC(=O)[C@H](Cc1c[nH]c2ccccc12)NC(=O)[C@H](CCCCN)NC(=O)CN)C(=O)N[C@H](C(=O)N[C@H](C(=O)N[C@@H](CO)C(=O)N[C@H](C(=O)N1CCC[C@@H]1C(=O)N1CCC[C@H]1C(=O)N[C@@H](CCCCN)C(=O)N[C@@H](CCCCN)C(=O)N[C@@H](CC(C)C)C(=O)N[C@H](C(=O)N[C@H](C(=O)N[C@@H](Cc1c[nH]c2ccccc12)C(=O)N[C@H](C(=O)N1CCC[C@@H]1C(=O)O)[C@@H](C)CC)C(C)C)[C@@H](C)O)[C@@H](C)CC)C(C)C)[C@@H](C)O`, on Alpha-synuclein [5], the Activity is 34%. The compound further returned an inhibition against Alpha-synuclein [6] of 65%.

In the case of `CC[C@H](C)[C@H](NC(=O)[C@H](Cc1ccc(O)cc1)NC(=O)[C@H](CCCCN)NC(=O)CNC(=O)[C@H]1CCCN1C(=O)[C@@H](NC(=O)[C@H](Cc1ccc(O)cc1)NC(=O)[C@@H](NC(=O)[C@@H](NC(=O)[C@H](CC(C)C)NC(=O)[C@H](CCCCN)NC(=O)[C@@H](N)CCCCN)[C@@H](C)O)C(C)C)[C@@H](C)CC)C(=O)N[C@H](C(=O)N[C@H](C(=O)N[C@@H](CO)C(=O)N[C@@H](C)C(=O)O)C(C)C)[C@@H](C)O`, the Remaining aggregation (% of control) on Alpha-synuclein [3] was determined as 18%.

Consider `C[C@]12CC[C@H]3[C@@H](CCC4=CC(=O)CC[C@@]43C)[C@@H]1CC[C@@H]2O` [TESTOSTERONE], for which 96.8 µM corresponded to half-maximal inhibition at Alpha-synuclein [1] (IC50).

On to `O=c1c(O)c(-c2ccc(O)c(O)c2)oc2cc(O)cc(O)c12` [QUERCETIN], for which the IC50 at Alpha-synuclein [2] is 20 µM.

On Alpha-synuclein [4], `O=C(/C=C/c1ccc(O)c(O)c1)O[C@H](Cc1ccc(O)c(O)c1)C(=O)O` [ROSMARINIC ACID] came in with an IC50 of 0.21 µM.

For the compound `C[C@]12CCC(=O)C=C1CC[C@@H]1[C@@H]2CC[C@]2(C)C(=O)CC[C@@H]12` [ANDROSTENEDIONE], the IC50 against Alpha-synuclein [1] was 85.9 µM.

With `Oc1cc(O)c2c(c1)O[C@H](c1cc(O)c(O)c(O)c1)[C@@H](O)C2` [GALLOCATECHIN], the IC50 against Alpha-synuclein [2] is 8.9 µM.

As for `CC[C@H](C)[C@H](NC(=O)[C@H](CO)NC(=O)[C@H](Cc1c[nH]c2ccccc12)NC(=O)[C@@H](NC(=O)[C@H](CC(C)C)NC(=O)[C@H](CCCCN)NC(=O)[C@@H](N)CCCCN)[C@@H](C)O)C(=O)N1CCC[C@@H]1C(=O)NCC(=O)N[C@@H](CCCCN)C(=O)N[C@@H](CCCCN)C(=O)N[C@@H](Cc1c[nH]c2ccccc12)C(=O)N[C@H](C(=O)N[C@H](C(=O)N[C@@H](CO)C(=O)N[C@@H](C)C(=O)O)C(C)C)[C@@H](C)O`, at Alpha-synuclein [3], the Remaining aggregation (% of control) amounted to 20%.

On to `Oc1cc(O)c2c(c1)O[C@H](c1ccc(O)c(O)c1)[C@H](O)C2` [(-)-EPICATECHIN], for which the IC50 at Alpha-synuclein [2] was 29.9 µM; against Alpha-synuclein [4], 0.8 µM.

In the case of `CC[C@H](C)[C@H](NC(=O)[C@H](Cc1c[nH]c2ccccc12)NC(=O)[C@H](CCCCN)NC(=O)CNC(=O)[C@H]1CCCN1C(=O)[C@@H](NC(=O)[C@H](Cc1c[nH]c2ccccc12)NC(=O)[C@@H](NC(=O)[C@@H](NC(=O)[C@H](CC(C)C)NC(=O)[C@H](CCCCN)NC(=O)[C@@H](N)CCCCN)[C@@H](C)O)C(C)C)[C@@H](C)CC)C(=O)N[C@H](C(=O)N[C@H](C(=O)N[C@@H](CO)C(=O)N[C@@H](C)C(=O)O)C(C)C)[C@@H](C)O`, at Alpha-synuclein [5], the Activity was 27%. The Remaining aggregation (% of control) on Alpha-synuclein [3] turned out to be 19%. This compound also displayed an inhibition on Alpha-synuclein [6] of 75%.

With `O=c1cc(-c2ccccc2)oc2cc(O)c(O)c(O)c12` [BAICALEIN], the IC50 against Alpha-synuclein [2] was 8.2 µM.

Take `O=C(O[C@@H]1Cc2c(O)cc(O)cc2O[C@H]1c1ccc(O)c(O)c1)c1cc(O)c(O)c(O)c1` [(-)-CATECHINGALLATE]: half-maximal inhibition at Alpha-synuclein [2] (IC50) required 21.4 µM.

As to `CC[C@H](C)[C@H](NC(=O)[C@H](Cc1c[nH]c2ccccc12)NC(=O)[C@H](CCCCN)NC(=O)CNC(=O)[C@H]1CCCN1C(=O)[C@@H](NC(=O)[C@H](Cc1c[nH]c2ccccc12)NC(=O)[C@@H](NC(=O)[C@@H](NC(=O)[C@H](CC(C)C)NC(=O)[C@H](CS)NC(=O)[C@@H](N)CCCCN)[C@@H](C)O)C(C)C)[C@@H](C)CC)C(=O)N[C@H](C(=O)N[C@H](C(=O)N[C@@H](CS)C(=O)N[C@@H](C)C(=O)O)C(C)C)[C@@H](C)O`, the Activity on Alpha-synuclein [5] stood at 49%. In addition, on Alpha-synuclein [6], the inhibition was 50%.

Turning to `CCC(=O)N[C@@H](Cc1c[nH]c2ccccc12)C(=O)N[C@H](C(=O)N1CCC[C@@H]1C(=O)NCC(=O)N[C@@H](CCCCN)C(=O)N[C@@H](Cc1c[nH]c2ccccc12)C(=O)N[C@H](C(=O)NCC(N)=O)[C@@H](C)O)[C@@H](C)CC`, at Alpha-synuclein [5], the Activity is 37%. At Alpha-synuclein [3], the Remaining aggregation (% of control) amounted to 69%. Further, the inhibition on Alpha-synuclein [6] was 50%.

Compound `Oc1cc(O)c2c(c1)O[C@H](c1cc(O)c(O)c(O)c1)[C@H](O)C2` [EPIGALLOCATECHIN] yielded an IC50 against Alpha-synuclein [2] of 10.6 µM.

A word on the IC50: it is the concentration needed to halve the response being measured. Broadly, the inhibition is the drop in the measured response relative to a control, in per cent.
